Several values for one entry are separate records, joined by “and”; a condition that tells them apart may be missing. Equal values may be shown once. Toxic doses and inconclusive results are not listed.

The values that follow come from PubChem BioAssay AID328 (DTP/NCI, 2004).

The experiment concerns BDF1 mice, P388 leukemia ip, median survival T/C. Nature of the experiment: NCI In Vivo Anticancer Drug Screen. Data for tumor model P388 Leukemia (intraperitoneal) in B6D2F1 (BDF1) mice. The following applies: endpoint: median survival time, higher = longer survival. In a few lines:
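Compound-treated tumour-bearing mice were compared with vehicle-treated controls. Survival was recorded, and the value is the treated-group measurement divided by the control-group measurement (T/C).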

The mark [1] stands for this setting: dose: 12.5 mg/kg/injection, schedule: Q01DX009 (ip), vehicle: saline.
Setting [2] is: dose: 25.0 mg/kg/injection, schedule: Q01DX009 (ip), vehicle: saline.
[3] abbreviates: dose: 100.0 mg/kg/injection, schedule: Q01DX009 (ip), vehicle: Klucel (hydroxypropylcellulose) (HPC).
Setting [4] is: dose: 100.0 mg/kg/injection, schedule: Q04DX003 (ip), vehicle: Klucel (hydroxypropylcellulose) (HPC).
[5] abbreviates: dose: 200.0 mg/kg/injection, schedule: Q01DX009 (ip), vehicle: Klucel (hydroxypropylcellulose) (HPC).
Setting [6] is: dose: 200.0 mg/kg/injection, schedule: Q04DX003 (ip), vehicle: Klucel (hydroxypropylcellulose) (HPC).
The mark [7] stands for this setting: dose: 400.0 mg/kg/injection, schedule: Q01DX009 (ip), vehicle: Klucel (hydroxypropylcellulose) (HPC).
The mark [8] stands for this setting: dose: 400.0 mg/kg/injection, schedule: Q04DX003 (ip), vehicle: Klucel (hydroxypropylcellulose) (HPC).
Where [9] appears, read: dose: 50.0 mg/kg/injection, schedule: Q01DX009 (ip), vehicle: saline with Tween-80.
[10] abbreviates: dose: 100.0 mg/kg/injection, schedule: Q01DX009 (ip), vehicle: saline with Tween-80.
Setting [11] is: dose: 100.0 mg/kg/injection, schedule: Q04DX003 (ip), vehicle: saline with Tween-80.
[12] abbreviates: dose: 200.0 mg/kg/injection, schedule: Q01DX009 (ip), vehicle: saline with Tween-80.
The mark [13] stands for this setting: dose: 200.0 mg/kg/injection, schedule: Q04DX003 (ip), vehicle: saline with Tween-80.
Setting [14] is: dose: 400.0 mg/kg/injection, schedule: Q01DX009 (ip), vehicle: saline with Tween-80.
Where [15] appears, read: dose: 100.0 mg/kg/injection, schedule: Q04DX003 (ip), vehicle: saline.
The mark [16] stands for this setting: dose: 200.0 mg/kg/injection, schedule: Q04DX003 (ip), vehicle: saline.

For the molecule `Cc1ccc(NC(=O)C(C)(C)C)c(C(O)(C(F)(F)F)C(F)(F)F)c1`, the T/C was 99 % of control (dose: 100.0 mg/kg/injection, schedule: Q01DX001 (ip), vehicle: saline with Tween-80); 106 % of control (dose: 200.0 mg/kg/injection, schedule: Q01DX001 (ip), vehicle: saline with Tween-80); 99 % of control (dose: 400.0 mg/kg/injection, schedule: Q01DX001 (ip), vehicle: saline with Tween-80).

Turning to `C=[CH][Sn]([CH]=C)([CH]=C)[O]C(C)=O`, the T/C is 101 % of control (dose: 1.56 mg/kg/injection, schedule: Q01DX009 (ip), vehicle: Klucel (hydroxypropylcellulose) (HPC)); 91 % of control (dose: 1.56 mg/kg/injection, schedule: Q04DX003 (ip), vehicle: Klucel (hydroxypropylcellulose) (HPC)); 101 % of control and 109 % of control (dose: 3.12 mg/kg/injection, schedule: Q01DX009 (ip), vehicle: Klucel (hydroxypropylcellulose) (HPC)); 92 % of control (dose: 3.12 mg/kg/injection, schedule: Q04DX003 (ip), vehicle: Klucel (hydroxypropylcellulose) (HPC)); 110 % of control and 117 % of control (dose: 6.25 mg/kg/injection, schedule: Q01DX009 (ip), vehicle: Klucel (hydroxypropylcellulose) (HPC)); 94 % of control and 101 % of control (dose: 6.25 mg/kg/injection, schedule: Q04DX003 (ip), vehicle: Klucel (hydroxypropylcellulose) (HPC)). Also, the T/C runs as follows: (dose: 12.5 mg/kg/injection, schedule: Q01DX009 (ip), vehicle: Klucel (hydroxypropylcellulose) (HPC)) 153 % of control and 160 % of control; under setting [1], 153 % of control and 162 % of control; (dose: 12.5 mg/kg/injection, schedule: Q04DX003 (ip), vehicle: Klucel (hydroxypropylcellulose) (HPC)) 104 % of control and 106 % of control; under setting [2], 86 % of control.

Take `COc1ccc(C2(C#N)CCCCC2)cc1`: the T/C by setting is: under setting [3], 104 % of control; under setting [4], 95 % of control; under setting [5], 91 % of control; under setting [6], 108 % of control; under setting [7], 108 % of control; under setting [8], 91 % of control.

For `CN(c1ccccc1)c1nc(=O)c2cc3ccc(=O)oc3cc2o1`, the T/C was 99 % of control (dose: 100.0 mg/kg/injection, schedule: Q04DX002 (ip), vehicle: saline with Tween-80); 109 % of control (dose: 200.0 mg/kg/injection, schedule: Q04DX002 (ip), vehicle: saline with Tween-80); 100 % of control (dose: 400.0 mg/kg/injection, schedule: Q04DX002 (ip), vehicle: saline with Tween-80).

Turning to `CC(=O)CC(=O)Nc1ccc(Cl)cc1Cl`, the T/C runs as follows: under setting [3], 96 % of control; under setting [4], 87 % of control; under setting [5], 104 % of control; under setting [6], 87 % of control; under setting [7], 88 % of control; under setting [8], 95 % of control.

Turning to `S=c1cc(-c2ccco2)ss1`, the T/C is 112 % of control (dose: 25.0 mg/kg/injection, schedule: Q01DX009 (ip), vehicle: saline with Tween-80); 95 % of control under setting [9]; 98 % of control under setting [10]; 110 % of control under setting [11]; 102 % of control under setting [12]; 100 % of control under setting [13]. The T/C by setting is: under setting [14], 107 % of control; (dose: 400.0 mg/kg/injection, schedule: Q04DX003 (ip), vehicle: saline with Tween-80) 101 % of control.

With `COc1cc2cc(c1Cl)N(C)C(=O)C[C@H](OC(=O)[C@H](C)N(C)C(=O)CC(C)C)[C@]1(C)O[C@H]1[C@H](C)[C@@H]1C[C@@](O)(NC(=O)O1)[C@H](OC)C=C/C=C(\C)C2`, the T/C was 120 % of control (dose: 0.1 micrograms/kg/injection, schedule: Q01DX009 (ip), vehicle: saline + alcohol); 174 % of control (dose: 0.4 micrograms/kg/injection, schedule: Q01DX009 (ip), vehicle: saline + alcohol); 158 % of control (dose: 0.8 micrograms/kg/injection, schedule: Q01DX009 (ip), vehicle: saline + alcohol); 154 % of control (dose: 1.6 micrograms/kg/injection, schedule: Q01DX009 (ip), vehicle: saline + alcohol); 158 % of control and 165 % of control (dose: 3.1 micrograms/kg/injection, schedule: Q01DX009 (ip), vehicle: saline + alcohol); 154 % of control and 201 % of control (dose: 6.2 micrograms/kg/injection, schedule: Q01DX009 (ip), vehicle: saline + alcohol). For the same molecule, the T/C is 177 % of control and 187 % of control (dose: 12.5 micrograms/kg/injection, schedule: Q01DX009 (ip), vehicle: saline + alcohol); 116 % of control (dose: 25.0 micrograms/kg/injection, schedule: Q01DX009 (ip), vehicle: saline + alcohol).

In the case of `Clc1cc(Cl)c(I)c(Cl)c1`, the T/C is 92 % of control under setting [10]; 100 % of control under setting [4]; 89 % of control under setting [12]; 100 % of control under setting [6]; 96 % of control under setting [14]; 91 % of control under setting [8].

For `N#Cc1c(SCc2ccc(Cl)cc2)nsc1Nc1ccc(Cl)cc1`, the T/C under setting [9] is 108 % of control.

As for `CSc1cccc(NC(=O)N2CCN(c3ccccc3)CC2)c1`, the T/C by setting is: (dose: 12.5 mg/kg/injection, schedule: Q01DX009 (ip), vehicle: DMSO) 93 % of control; (dose: 25.0 mg/kg/injection, schedule: Q01DX009 (ip), vehicle: DMSO) 94 % of control.

Consider `CC(=O)c1ccccc1C`, for which the T/C by setting is: under setting [9], 100 % of control; (dose: 50.0 mg/kg/injection, schedule: Q04DX003 (ip), vehicle: saline with Tween-80) 100 % of control; under setting [10], 109 % of control; under setting [11], 100 % of control; under setting [12], 95 % of control; under setting [13], 100 % of control.

On to `O=S(=O)(O)O.[W]`, for which the T/C runs as follows: (dose: 0.75 mg/kg/injection, schedule: Q01DX009 (ip), vehicle: saline) 96 % of control; (dose: 3.0 mg/kg/injection, schedule: Q01DX009 (ip), vehicle: saline) 90 % of control.

As for `N#C/C1=C(\N)CCCOCCCOCCCOCCCOCCCOCC1`, the T/C under setting [15] is 97 % of control and the T/C under setting [16] was 92 % of control.

Turning to `CC(=O)O[C@@]1(C)[C@@H](C)C(=O)O[C@@H]2CCN3CC=C(COC(=O)[C@]1(C)O)[C@H]23`, the T/C was 110 % of control (dose: 25.0 mg/kg/injection, schedule: Q01DX010 (ip), vehicle: carboxymethylcellulose (CMC)); 95 % of control (dose: 50.0 mg/kg/injection, schedule: Q01DX010 (ip), vehicle: carboxymethylcellulose (CMC)); 100 % of control (dose: 100.0 mg/kg/injection, schedule: Q01DX010 (ip), vehicle: carboxymethylcellulose (CMC)).

On to `OC1C=CC2C3C=CC(C3)C12` (stereo not given), for which the T/C under setting [15] is 96 % of control; the T/C under setting [16] is 92 % of control; the T/C (dose: 400.0 mg/kg/injection, schedule: Q04DX003 (ip), vehicle: saline) is 103 % of control.

Turning to `CSc1nc2n(C)cc(C)cc-2c(=O)n1`, the T/C (dose: 100.0 mg/kg/injection, schedule: Q01DX001 (ip), vehicle: suspension in saline) was 90 % of control.

Consider `CCOC(=O)NP(=O)(N1CC1)N1CC1`, for which the T/C (dose: 2.1 mg/kg/injection, schedule: Q04DX003 (ip), vehicle: saline) was 105 % of control; the T/C (dose: 3.1 mg/kg/injection, schedule: Q04DX003 (ip), vehicle: saline) was 110 % of control; the T/C (dose: 11.0 mg/kg/injection, schedule: Q04DX003 (ip), vehicle: saline) was 272 % of control; the T/C (dose: 25.0 mg/kg/injection, schedule: Q04DX003 (ip), vehicle: saline) was 225 % of control; the T/C (dose: 33.0 mg/kg/injection, schedule: Q04DX003 (ip), vehicle: saline) is 333 % of control and 220 % of control; the T/C (dose: 50.0 mg/kg/injection, schedule: Q04DX003 (ip), vehicle: saline) was 300 % of control and 172 % of control and 195 % of control. The T/C (dose: 75.0 mg/kg/injection, schedule: Q04DX003 (ip), vehicle: saline) was 88 % of control and 95 % of control.

For `CN(C)P(=O)(N(C)C)N(C)CCN(C)P(=O)(N(C)C)N(C)C`, the T/C by setting is: under setting [1], 108 % of control; under setting [2], 101 % of control; (dose: 50.0 mg/kg/injection, schedule: Q01DX009 (ip), vehicle: saline) 101 % of control and 111 % of control.
